The values that follow come from PMC5717343 (Open Biology, 2017).

One may read the IC50 as the midpoint of a concentration-inhibition curve.

For this experiment, the system named is PrP^Sc in iPK1/2 cells. It is filed as cell-based.

As to dextran sulfate, the “concentration of apparent curing” value is reported as “greater than 1 × 10^−6 M” and the “effect on PrP^Sc levels / prion infection (curing)” value is given as “dose-dependent decrease in PrP^Sc”. Further, the IC50 (read-out: apparent IC50, reduction of PrP^Sc) is approximately 500 nM.
